# Read-outs that look alike come from different tables or passages of the source.
# How the values were obtained:
# AChE from electric eel = target: T1, AChE from electric eel (Electrophorus electricus, UniProt O42275); experiment: EeAChE inhibition assay (Ellman's method); type: biochemical; conditions: for inhibition at 20 µM: read-out: AChE % inhibition at 20 µM
# T1 construct: assays were performed on AChE from electric eel (C3389-500UN; Sigma); purchased Sigma C3389-500UN
# Protocol: (§1) According to the Ellman’s method, assays were performed on AChE from electric eel (C3389-500UN; Sigma) and BuChE from equine serum (C4290-1KU; Sigma). The experiment was performed in 48-well plates in a final volume of 500 µL. Each well contained 0.036 U/mL of eeAChE or eqBuChE, and 0.1 M pH 8 PBS. They were pre-incubated for 20 min at different compound concentrations at 37 °C. […] The DTNB produces the yellow anion 5-thio-2-nitrobenzoic acid along with the enzymatic degradation of ACh or BuCh. Changes in absorbance were measured at 410 nm after 20 min in a PerkinElmer VICTOR Nivo reader. The IC50 values were calculated graphically from inhibition curves (log inhibitor concentration vs percent of inhibition). A control experiment was performed under the same conditions without inhibitor and the blank contained buffer, DMSO, DTNB, and substrate.
# BuChE from equine serum = target: T2, BuChE from equine serum (Equus caballus, UniProt P81908); experiment: eqBuChE inhibition assay (Ellman's method); type: biochemical; conditions: BuChE from horse serum; for IC50: mean ± SEM; for inhibition at 20 µM: read-out: BuChE % inhibition at 20 µM
# T2 construct: BuChE from equine serum (C4290-1KU; Sigma); purchased Sigma C4290-1KU; host or cells: equine serum
# Protocol: as §1
# [1] = AChE from electric eel, 20 µM, na = no inhibitory activity at 20 µM
# T2 sequence (P81908 whole entry): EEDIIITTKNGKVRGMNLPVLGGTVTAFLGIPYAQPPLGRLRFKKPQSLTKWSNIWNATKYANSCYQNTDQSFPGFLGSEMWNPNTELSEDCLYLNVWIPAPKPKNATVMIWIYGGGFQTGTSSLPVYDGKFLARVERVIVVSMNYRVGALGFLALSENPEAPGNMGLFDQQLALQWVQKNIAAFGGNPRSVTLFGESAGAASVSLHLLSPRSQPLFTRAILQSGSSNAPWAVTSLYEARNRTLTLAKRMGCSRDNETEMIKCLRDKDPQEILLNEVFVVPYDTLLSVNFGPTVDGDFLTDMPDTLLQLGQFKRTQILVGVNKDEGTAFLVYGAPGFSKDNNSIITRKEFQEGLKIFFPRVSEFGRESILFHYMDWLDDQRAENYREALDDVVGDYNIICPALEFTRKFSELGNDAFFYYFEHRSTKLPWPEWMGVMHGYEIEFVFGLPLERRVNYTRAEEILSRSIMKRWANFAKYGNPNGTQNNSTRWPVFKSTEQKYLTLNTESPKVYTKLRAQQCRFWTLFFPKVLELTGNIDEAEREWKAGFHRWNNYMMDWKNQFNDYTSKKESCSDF
# T1 sequence (O42275 24-633): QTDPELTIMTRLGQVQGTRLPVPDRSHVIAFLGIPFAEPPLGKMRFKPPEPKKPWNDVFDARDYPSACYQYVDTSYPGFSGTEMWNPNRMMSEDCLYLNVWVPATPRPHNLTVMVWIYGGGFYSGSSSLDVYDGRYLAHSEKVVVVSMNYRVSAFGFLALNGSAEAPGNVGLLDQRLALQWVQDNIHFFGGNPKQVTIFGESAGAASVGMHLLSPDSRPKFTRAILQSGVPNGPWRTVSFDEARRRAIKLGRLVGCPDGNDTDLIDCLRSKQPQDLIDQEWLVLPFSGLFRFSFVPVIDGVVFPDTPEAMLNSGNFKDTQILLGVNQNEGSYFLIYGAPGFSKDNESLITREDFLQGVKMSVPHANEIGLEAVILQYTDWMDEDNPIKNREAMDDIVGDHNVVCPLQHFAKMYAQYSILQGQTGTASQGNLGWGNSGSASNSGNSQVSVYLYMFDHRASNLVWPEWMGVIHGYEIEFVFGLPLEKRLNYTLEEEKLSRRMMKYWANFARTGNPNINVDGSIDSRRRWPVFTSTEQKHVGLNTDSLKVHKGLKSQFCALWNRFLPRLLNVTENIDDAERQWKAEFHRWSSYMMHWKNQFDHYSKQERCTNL
SMILES,inhibition at 20 µM (AChE from electric eel; [1]),IC50 (BuChE from equine serum),also measured
COc1ccccc1/C=C/C=C(\Cl)S(=O)(=O)F [Compound B5],34.2 ± 0.4%,0.13 ± 0.01 µM,–
O=S(=O)(F)/C(I)=C/C=C/c1cccc(C(F)(F)F)c1 [Compound C6],24 ± 6%,0.5 ± 0.04 µM,–
O=S(=O)(F)/C(I)=C/C=C/c1ccc(Br)cc1 [Compound C4],10.5 ± 3.6%,0.57 ± 0.03 µM,–
O=S(=O)(F)/C(C#Cc1cccc(Br)c1)=C/C=C/c1ccccc1 [Compound D8],–,4.56 ± 2.65 µM,"IC50 (AChE from electric eel; AChE from electric eel, mean ± SEM, read-out: AChE IC50): 2.73 ± 0.1 µM"
O=S(=O)(F)/C(C#Cc1ccc(Br)cc1)=C/C=C/c1ccccc1 [Compound D10],36.9 ± 1.2%,–,inhibition at 20 µM (BuChE from equine serum): 22.6 ± 0.7%
O=S(=O)(F)C(Br)=CC=CC=Cc1ccccc1 [Compound A20],–,12.5 µM,inhibition at 20 µM (AChE from electric eel): 18.7 ± 2.4%
O=S(=O)(F)C(Br)=CC=Cc1ccc(Cl)cc1 [Compound A3],–,–,AChE % inhibition at 20 µM (AChE from electric eel; [1]): 33.9 ± 0.9%; BuChE % inhibition at 20 µM (BuChE from equine serum): 42.2 ± 2.1%
Cc1ccc(C#C/C(=C\C=C\c2ccccc2)S(=O)(=O)F)cc1 [Compound D12],43.5 ± 4%,–,inhibition at 20 µM (BuChE from equine serum): 34.7 ± 0.1%
O=S(=O)(F)/C(=C/C=C/c1ccccc1)c1ccc(Br)cc1 [Compound D5],29 ± 3.4%,–,inhibition at 20 µM (BuChE from equine serum): 30.5 ± 0.9%
O=S(=O)(F)/C(I)=C/C=C/c1ccc(Cl)cc1 [Compound C3],38.9 ± 2.5%,3.07 ± 1.72 µM,–
CCc1ccc(/C(=C\C=C\c2ccccc2)S(=O)(=O)F)cc1 [Compound D1],25.1 ± 1.6%,1.18 ± 0.33 µM,–
Cc1ccc(C=CC=C(Br)S(=O)(=O)F)cc1 [Compound A5],–,1.72 ± 0.34 µM,–
O=S(=O)(F)/C(=C/C=C/c1ccccc1)c1ccc(Oc2ccccc2)cc1 [Compound D4],36.7 ± 2.8%,–,inhibition at 20 µM (BuChE from equine serum): 41.2 ± 1.1%
"O=S(=O)(F)/C(I)=C/C=C/c1ccccc1 [Compound C1, δ-phenyl-α-I-dienyl sulphonyl fluoride]",23.4 ± 2.8%,1.76 ± 0.62 µM,–
O=S(=O)(F)C(Br)=CC=Cc1ccc(-c2ccccc2)cc1 [Compound A7],11.9 ± 0.5%,–,inhibition at 20 µM (BuChE from equine serum): 45.2 ± 2%
O=C(Oc1ccc(/C(=C\C=C\c2ccccc2)S(=O)(=O)F)cc1)c1ccccc1 [Compound D6],18.7 ± 2.1%,–,inhibition at 20 µM (BuChE from equine serum): 29.7 ± 3.8%

SMILES,inhibition at 20 µM (AChE from electric eel; [1]),IC50 (BuChE from equine serum),also measured
O=S(=O)(F)/C(C#Cc1ccccc1F)=C/C=C/c1ccccc1 [Compound D9],47.7 ± 1.9%,–,inhibition at 20 µM (BuChE from equine serum): 31.7 ± 1%
O=S(=O)(F)/C(Cl)=C/C=C/c1ccccc1 [Compound B1],35.9 ± 1.4%,0.44 ± 0.04 µM,–
"O=S(=O)(F)C(Br)=CC=Cc1ccccc1 [Compound A1, δ-phenyl-α-Br-dienyl sulphonyl fluoride]",–,0.082 ± 0.007 µM,–
COc1cccc(C=CC=C(Br)S(=O)(=O)F)c1 [Compound A16],35.9 ± 1.4%,0.3 ± 0.04 µM,–
O=S(=O)(F)C(Br)=CC=Cc1cccs1 [Compound A13],–,0.32 ± 0.06 µM,–
Cc1ccc(S(=O)(=O)n2cc(C=CC=C(Br)S(=O)(=O)F)c3ccccc32)cc1 [Compound A19],46.2 ± 0.4%,–,inhibition at 20 µM (BuChE from equine serum): 46 ± 1.6%
O=S(=O)(F)C(Br)=CC=Cc1ccc(Br)cc1 [Compound A4],–,–,BuChE % inhibition at 20 µM (BuChE from equine serum): 19.2 ± 1.2%
COc1ccc(C=CC=C(Br)S(=O)(=O)F)cc1 [Compound A6],–,0.31 ± 0.04 µM,–
O=S(=O)(F)/C(Cl)=C/C=C/c1ccc(F)cc1 [Compound B2],18.7 ± 1.7%,0.51 ± 0.01 µM,–
COc1ccccc1/C=C/C=C(\I)S(=O)(=O)F [Compound C5],39.5 ± 0.3%,0.19 ± 0.04 µM,–
O=S(=O)(F)/C(Cl)=C/C=C/c1cccc(C(F)(F)F)c1 [Compound B6],26.8 ± 2.7%,0.5 ± 0.21 µM,–
O=S(=O)(F)C(Br)=CC=Cc1cccc(Cl)c1 [Compound A14],17.9 ± 2%,0.11 ± 0.02 µM,–
O=S(=O)(F)C(Br)=CC=Cc1ccc(F)cc1 [Compound A2],–,0.43 ± 0.01 µM,–
Cc1cccc(C=CC=C(Br)S(=O)(=O)F)c1 [Compound A15],–,0.6 ± 0.12 µM,–
O=S(=O)(F)C(Br)=CC=Cc1ccc2ccccc2c1 [Compound A12],–,2.91 ± 0.26 µM,–

# Source: publication PMC8386747, “Structure–activity relationship, in vitro and in vivo evaluation of novel dienyl sulphonyl fluorides as selective BuChE inhibitors for the treatment of Alzheimer's disease” (Journal of Enzyme Inhibition and Medicinal Chemistry, 2021)
